For twelve compounds, IC50 results are on record in US11186587B2, “Compound as ACC inhibitor and use thereof” (NANJING SANHOME PHARMACEUTICAL CO., LTD., priority 2017, dated 2021).

In the experiment the target is ACC1 (Homo sapiens (Human), UniProt Q13085). The experiment in a line: ACC1 enzyme activity assay (ADP-Glo). The format is biochemical. The note with it: ACC1 enzyme 2 nM working solution, room temperature. The procedure:
Compound preparation: the compounds of the present disclosure prepared in the above examples and the control compound were respectively formulated into 10 mM with DMSO for use.
Preparation of 1× reaction buffer (pH=7.4): HEPES stock solutions (1 M), MgCl2 (1 M), BRIJ-35 (10%), potassium citrate buffer (1 M), BSA (10 mg/mL) and DTT (500 mM) were formulated to enzyme reaction buffer containing HEPES (50 mM), MgCl2 (2 mM), BRIJ-35 (0.01%), potassium citrate buffer (2 mM), BSA (50 Gg/mL) and DTT (2 mM).
4.5 μL of 2.2×ACC1 enzyme (2 nM) working solution was added to a 384-well plate; and then 0.5 μL of different concentrations of compound were added. The mixture was incubated at room temperature for 15 min.
Negative control group: menstruum containing 5% DMSO; positive control group: menstruum containing 100 nM ND-630. The average values of each concentration and the positive and negative controls were calculated, and the standard deviation was calculated. […] The inhibition rate data was fitted by nonlinear regression equation to calculate IC50 of each compound. The nonlinear regression equation was Y=lowest value+(highest value−lowest value)/(1+10^((Log IC50−X)×HillSlope)), among which X is logarithm of the compound concentration and Y is inhibition percent (%).
For `COc1ccccc1C(Cn1c(=O)n(C2CN(C(=O)N3CC(C)(O)C3)C2)c(=O)c2c(C)c(-c3ncco3)sc21)OC1CCOCC1` (stereo not drawn) [Example 16, 3-(1-(3-Hydroxy-3-methylazetidin-1-oyl)azetidin-3-yl)-1-(2-(2-methoxyphenyl)-2-((tetrahydro-2H-pyran-4-yl)oxy)ethyl)-5-methyl-6-(oxazol-2-yl)thieno[2,3-d]pyrimidine-2,4(1H,3H)-dione], the IC50 – broadly, the concentration that inhibits the measured activity by half – was determined as 6.89 nM.

`COc1ccccc1C(Cn1c(=O)n(C(C)(C)C(=O)O)c(=O)c2c(C)c(-c3ncco3)sc21)OC1CCNCC1` (stereo not drawn) [Example 17] yielded an IC50 of 7.66 nM.

As for `COc1ccccc1C(Cn1c(=O)n(-c2cc(C(=O)O)ccc2F)c(=O)c2c(C)c(-c3ncco3)sc21)OC1CCOCC1` (stereo not drawn) [Example 30, 4-Fluoro-3-(1-(2-(2-methoxyphenyl)-2-((tetrahydro-2H-pyran-4-yl)oxy)ethyl)-5-methyl-6-(oxazol-2-yl)-2,4-dioxo-1,4-dihydrothieno[2,3-d]pyrimidin-3(2H)-yl)benzoic Acid], the IC50 was 7.97 nM. As for `COc1ccccc1C(Cn1c(=O)n(C(C)(C)C(=O)O)c(=O)c2c(C)c(-c3ncco3)sc21)OC1CCN(C)CC1` (stereo not drawn) [Example 19, 2-(1-(2-(2-methoxyphenyl)-2-((1-methylpiperidin-4-yl)oxy)ethyl)-5-methyl-6-(oxazol-2-yl)-2,4-dioxo-1,4-dihydrothieno[2,3-d]pyrimidin-3(2H)-yl)-2-methylpropionic Acid], the figure is 23.3 nM; as for `COc1ccccc1C(Cn1c(=O)n(C2CN(C(=O)c3ccccc3)C2)c(=O)c2c(C)c(-c3ncco3)sc21)OC1CCOCC1` (stereo not drawn) [Example 11, 3-(1-benzoylazetidin-3-yl)-1-(2-(2-methoxyphenyl)-2-((tetrahydro-2H-pyran-4-yl)oxy)ethyl)-5-methyl-6-(oxazol-2-yl)thieno[2,3-d]pyrimidine-2,4(1H,3H)-dione], 4.5 nM. The value for `COc1ccccc1C(Cn1c(=O)n(C(C)(C)C(=O)O)c(=O)c2c(C)c(-c3ncco3)sc21)OC1CCN(C(=O)C2CC2)CC1` (stereo not drawn) [Example 21] was 0.7 nM; that for `COc1ccccc1C(Cn1c(=O)n(-c2cc(C(=O)O)ccc2OC)c(=O)c2c(C)c(-c3ncco3)sc21)OC1CCOCC1` (stereo not drawn) [Example 27] was 11.8 nM.

For the compound `COc1ccccc1C(Cn1c(=O)n(C(C)(C)C(=O)O)c(=O)c2c(C)c(-c3ncco3)sc21)OC1CN(C(C)=O)C1` (stereo not drawn) [Example 23], the 50% inhibitory concentration (IC50) was 11.5 nM. The value for `COc1ccccc1C(Cn1c(=O)n(C2CC(F)(F)C2)c(=O)c2c(C)c(-c3ncco3)sc21)OC1CCOCC1` (stereo not drawn) [Example 2, 3-(3,3-Difluorocyclobutyl)-1-(2-(2-methoxyphenyl)-2-((tetrahydro-2H-pyran-4-yl)oxy)ethyl)-5-methyl-6-(oxazol-2-yl)thieno[2,3-d]pyrimidine-2,4(1H,3H)-dione] was 8.7 nM; that for `COc1ccccc1C(Cn1c(=O)n(-c2c(C)ccn3ccnc23)c(=O)c2c(C)c(-c3ncco3)sc21)OC1CCOCC1` (stereo not drawn) [Example 5, 1-(2-(2-methoxyphenyl)-2-((tetrahydro-2H-pyran-4-yl)oxy)ethyl)-5-methyl-3-(7-methylimidazo[1,2-a]pyridin-8-yl)-6-(oxazol-2-yl)thieno[2,3-d]pyrimidine-2,4(1H, 3H)-diketone] was 38.5 nM. As for `COc1ccccc1C(Cn1c(=O)n(C2CC(OCCF)C2)c(=O)c2c(C)c(-c3ncco3)sc21)OC1CCOCC1` (stereo not drawn) [Example 31], the figure is 136 nM; as for `COc1ccccc1C(Cn1c(=O)n(C(C)(C)C(=O)O)c(=O)c2c(C)c(-c3ncco3)sc21)N1CCCCC1` (stereo not drawn) [Example 18, 2-(1-(2-(2-methoxyphenyl)-2-(piperidin-1-yl)ethyl)-5-methyl-6-(oxazol-2-yl)-2,4-dioxo-1,4-dihydrothieno[2,3-d]pyrimidin-3(2H)-yl)-2-methylpropionic Acid], more than 1000 nM.
